In paper PMC9705869, “Chromophorylation of a Novel Cyanobacteriochrome GAF Domain from Spirulina and Its Response to Copper Ions” (Journal of Microbiology and Biotechnology, 2020):

Target: T1, SPI1085g2 (Spirulina subsalsa, UniProt A0ABT3L563)
T1 construct: gene K4A83_08105; second GAF domain (GAF2) only, residues 216-369 of SPI1085; N-terminal polyhistidine tag kept (pETDuet); expressed in E. coli BL21(DE3) with ho1::pcyA or ho1::pebS
T1 sequence (A0ABT3L563 216-369): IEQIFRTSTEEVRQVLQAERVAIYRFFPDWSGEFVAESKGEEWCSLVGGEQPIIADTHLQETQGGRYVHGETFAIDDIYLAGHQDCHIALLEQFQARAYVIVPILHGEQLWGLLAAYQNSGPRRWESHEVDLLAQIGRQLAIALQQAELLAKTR
Test: zinc-induced fluorescence on SDS-PAGE; absorbance and acid-urea denaturation
Format: binding
Settings: covalent, KPB pH […]

Row | Structure (SMILES) | zinc-induced fluorescence on SDS-PAGE; absorbance and acid-urea denaturation (chromophore assembled in E. coli co-expressing ho1 and pcyA) | zinc-induced fluorescence on SDS-PAGE; absorbance and acid-urea denaturation (chromophore assembled in E. coli co-expressing ho1 and pebS)
1 | C/C=C1/C(=C/c2[nH]c(/C=C3N=C(/C=C4\NC(=O)C(CC)=C4C)C(C)=C\3CCC(=O)O)c(CCC(=O)O)c2C)NC(=O)[C@@H]1C [PCB, phycocyanobilin] | SPI1085g2 can covalently bind PCB, as demonstrated by the zinc-dependent fluorescence observed by SDS-PAGE | –
2 | C=CC1=C(C)[C@@H](Cc2[nH]c(/C=C3N=C(/C=C4\NC(=O)[C@H](C)\C4=C/C)C(C)=C\3CCC(=O)O)c(CCC(=O)O)c2C)NC1=O [PEB, phycoerythrobilin] | – | resulted in highly efficient binding of PEB to SPI1085g2
